Measured values taken from the supplement of paper PMC4862054.

Tests used:
Conditions in all cases: incubation time: 72 h
BT-549 [1] = experiment: normalised response (% of control), CellTiter-Glo; higher = more viable cells (100 = DMSO, 0 = benzethonium chloride kill control)
How it was run: (§1)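 Breast cancer cell lines in 20 µl suspension were added to 384-well plates containing compound at 5 concentrations, spaced in 10-fold steps across a 10,000-fold range chosen for each compound, and incubated for 72 h. CellTox Green fluorescence was read at 485/520 nm, followed by CellTiter-Glo luminescence after 10 min at room temperature. Signals on each plate were normalised so that 0.1 % DMSO equals 100 and a positive kill control equals 0. Every value in the table is the normalised signal at one concentration of the series.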

DU-4475 [2] = experiment: as above
How it was run: as §1

MCF-10A = experiment: as above
How it was run: as §1

MDA-MB-468 [3] = experiment: as above
How it was run: as §1

BT-474 [4] = experiment: as above
How it was run: as §1

MDA-MB-231 [5] = experiment: as above
How it was run: as §1

HCC1599 [6] = experiment: as above
How it was run: as §1

CAL-120 [7] = experiment: as above
How it was run: as §1

CAL-85-1 [8] = experiment: as above
How it was run: as §1

SK-BR-3 [9] = experiment: as above
How it was run: as §1

HCC1143 [10] = experiment: as above
How it was run: as §1

CAL-148 [11] = experiment: as above
How it was run: as §1

Hs578T [12] = experiment: as above
How it was run: as §1

MDA-MB-453 [13] = experiment: as above
How it was run: as §1

HDQ-P1 [14] = experiment: as above
How it was run: as §1

HCC1937 [15] = experiment: as above
How it was run: as §1

MDA-MB-436 [16] = experiment: as above
How it was run: as §1

CAL-51 [17] = experiment: as above
How it was run: as §1

MFM-223 [18] = experiment: as above
How it was run: as §1

BT-549 [19] = experiment: normalised viability (% of control), CellTiter-Blue; higher = more viable cells (100 = DMSO, 0 = benzethonium chloride kill control)
How it was run: (§2)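 Breast cancer cell lines in 20 µl suspension were seeded onto 384-well plates pre-loaded with compound dissolved in 5 µl medium, then incubated 72 h. CellTiter-Blue reagent (2.5 µl) was added for 2 h at 37 °C and fluorescence read at 560/590 nm. Each plate was normalised to vehicle (100) and a positive kill control (0), with Z'-factor quality control. The value is normalised viability at one listed concentration of the series.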

DU-4475 [20] = experiment: as above
How it was run: as §2

MDA-MB-468 [21] = experiment: as above
How it was run: as §2

BT-474 [22] = experiment: as above
How it was run: as §2

MDA-MB-231 [23] = experiment: as above
How it was run: as §2

HCC1599 [24] = experiment: as above
How it was run: as §2

CAL-120 [25] = experiment: as above
How it was run: as §2

CAL-85-1 [26] = experiment: as above
How it was run: as §2

SK-BR-3 [27] = experiment: as above
How it was run: as §2

HCC1143 [28] = experiment: as above
How it was run: as §2

CAL-148 [29] = experiment: as above
How it was run: as §2

Hs578T [30] = experiment: as above
How it was run: as §2

MDA-MB-453 [31] = experiment: as above
How it was run: as §2

HDQ-P1 [32] = experiment: as above
How it was run: as §2

HCC1937 [33] = experiment: as above
How it was run: as §2

MDA-MB-436 [34] = experiment: as above
How it was run: as §2

CAL-51 [35] = experiment: as above
How it was run: as §2

MFM-223 [36] = experiment: as above
How it was run: as §2

In the case of `CC(C)(C)c1cc(NC(=O)Nc2ccc(-c3cn4c(n3)sc3cc(OCCN5CCOCC5)ccc34)cc2)no1` [Quizartinib] (0.1 nM), the normalised response (BT-549 [1]) is reported as 96.2%, the normalised response (DU-4475 [2]) is reported as 104% and the normalised response (MCF-10A) is reported as 101%. It also gave a normalised response (MDA-MB-468 [3]) of 107%, a normalised response (BT-474 [4]) of 108% and a normalised response (MDA-MB-231 [5]) of 106%. For the same compound, the normalised response (HCC1599 [6]) was 112%, the normalised response (CAL-120 [7]) was 103% and the normalised response (CAL-85-1 [8]) was 110%. It also gave a normalised response (SK-BR-3 [9]) of 109%, a normalised response (HCC1143 [10]) of 100% and a normalised response (CAL-148 [11]) of 110%. The normalised response (Hs578T [12]) was 99.8%, the normalised response (MDA-MB-453 [13]) was 105% and the normalised response (HDQ-P1 [14]) was 99.5%. It also gave a normalised response (HCC1937 [15]) of 103%, a normalised response (MDA-MB-436 [16]) of 101% and a normalised response (CAL-51 [17]) of 87.7%. The normalised response (MFM-223 [18]) was 108%, the normalised viability (BT-549 [19]) was 92.8% and the normalised viability (DU-4475 [20]) was 117%. The normalised viability (MDA-MB-468 [21]) was 92.3%, the normalised viability (BT-474 [22]) was 115% and the normalised viability (MDA-MB-231 [23]) was 105%. For the same compound, the normalised viability (HCC1599 [24]) was 89.4%, the normalised viability (CAL-120 [25]) was 99.7% and the normalised viability (CAL-85-1 [26]) was 89.4%. For the same compound, the normalised viability (SK-BR-3 [27]) was 90.9%, the normalised viability (HCC1143 [28]) was 99.6% and the normalised viability (CAL-148 [29]) was 105%. For the same compound, the normalised viability (Hs578T [30]) was 120%, the normalised viability (MDA-MB-453 [31]) was 113% and the normalised viability (HDQ-P1 [32]) was 74.7%. For the same compound, the normalised viability (HCC1937 [33]) was 109%, the normalised viability (MDA-MB-436 [34]) was 98.1% and the normalised viability (CAL-51 [35]) was 103%. It also gave a normalised viability (MFM-223 [36]) of 81.8%.

Compound `O=C(c1ccc(OCCN2CCCCC2)cc1)c1c(-c2ccc(O)cc2)sc2cc(O)ccc12` [Raloxifene] (1 nM) has a normalised response (BT-549 [1]) of 104%, a normalised response (DU-4475 [2]) of 102% and a normalised response (MCF-10A) of 109%. It also gave a normalised response (MDA-MB-468 [3]) of 101%, a normalised response (BT-474 [4]) of 99.7% and a normalised response (MDA-MB-231 [5]) of 101%. For the same compound, the normalised response (HCC1599 [6]) was 97%, the normalised response (CAL-120 [7]) was 97.9% and the normalised response (CAL-85-1 [8]) was 101%. It also gave a normalised response (SK-BR-3 [9]) of 110%, a normalised response (HCC1143 [10]) of 109% and a normalised response (CAL-148 [11]) of 108%. For the same compound, the normalised response (Hs578T [12]) was 108%, the normalised response (MDA-MB-453 [13]) was 105% and the normalised response (HDQ-P1 [14]) was 107%. It also gave a normalised response (HCC1937 [15]) of 102%, a normalised response (MDA-MB-436 [16]) of 105% and a normalised response (CAL-51 [17]) of 114%. For the same compound, the normalised response (MFM-223 [18]) was 99.6%, the normalised viability (BT-549 [19]) was 95.2% and the normalised viability (DU-4475 [20]) was 110%. The normalised viability (MDA-MB-468 [21]) was 105%, the normalised viability (BT-474 [22]) was 71.6% and the normalised viability (MDA-MB-231 [23]) was 87.1%. For the same compound, the normalised viability (HCC1599 [24]) was 101%, the normalised viability (CAL-120 [25]) was 90.7% and the normalised viability (CAL-85-1 [26]) was 103%. The normalised viability (SK-BR-3 [27]) was 90.8%, the normalised viability (HCC1143 [28]) was 86.1% and the normalised viability (CAL-148 [29]) was 98.2%. For the same compound, the normalised viability (Hs578T [30]) was 99.8%, the normalised viability (MDA-MB-453 [31]) was 85% and the normalised viability (HDQ-P1 [32]) was 101%. It also gave a normalised viability (HCC1937 [33]) of 88.3%, a normalised viability (MDA-MB-436 [34]) of 91.6% and a normalised viability (CAL-51 [35]) of 96.8%. For the same compound, the normalised viability (MFM-223 [36]) was 91.2%.

In the case of `Cn1c(=O)c(F)c(Nc2ccc(I)cc2F)c2c(=O)n(C[C@@H](O)CO)cnc21` [TAK-733] (0.1 nM), the normalised response (BT-549 [1]) is reported as 91.8%, the normalised response (DU-4475 [2]) is reported as 99.4% and the normalised response (MCF-10A) is reported as 114%. The normalised response (MDA-MB-468 [3]) was 102%, the normalised response (BT-474 [4]) was 103% and the normalised response (MDA-MB-231 [5]) was 105%. For the same compound, the normalised response (HCC1599 [6]) was 94.3%, the normalised response (CAL-120 [7]) was 98% and the normalised response (CAL-85-1 [8]) was 96.6%. It also gave a normalised response (SK-BR-3 [9]) of 111%, a normalised response (HCC1143 [10]) of 102% and a normalised response (CAL-148 [11]) of 104%. It also gave a normalised response (Hs578T [12]) of 101%, a normalised response (MDA-MB-453 [13]) of 115% and a normalised response (HDQ-P1 [14]) of 97.1%. For the same compound, the normalised response (HCC1937 [15]) was 100%, the normalised response (MDA-MB-436 [16]) was 96.2% and the normalised response (CAL-51 [17]) was 74%. The normalised response (MFM-223 [18]) was 108%, the normalised viability (BT-549 [19]) was 101% and the normalised viability (DU-4475 [20]) was 112%. It also gave a normalised viability (MDA-MB-468 [21]) of 95.8%, a normalised viability (BT-474 [22]) of 68.7% and a normalised viability (MDA-MB-231 [23]) of 105%. For the same compound, the normalised viability (HCC1599 [24]) was 73.2%, the normalised viability (CAL-120 [25]) was 87.1% and the normalised viability (CAL-85-1 [26]) was 90.7%. The normalised viability (SK-BR-3 [27]) was 97.9%, the normalised viability (HCC1143 [28]) was 101% and the normalised viability (CAL-148 [29]) was 105%. The normalised viability (Hs578T [30]) was 128%, the normalised viability (MDA-MB-453 [31]) was 111% and the normalised viability (HDQ-P1 [32]) was 120%. The normalised viability (HCC1937 [33]) was 88.7%, the normalised viability (MDA-MB-436 [34]) was 105% and the normalised viability (CAL-51 [35]) was 101%. It also gave a normalised viability (MFM-223 [36]) of 99.9%.

`CCS(=O)(=O)c1cccc(-c2cc(C(=O)NC3CCN(C)CC3)c(C)c3[nH]c4ncc(C)cc4c23)c1` [TAK-901] (0.1 nM) was tested, and the normalised response (BT-549 [1]) was 106%, the normalised response (DU-4475 [2]) was 106% and the normalised response (MCF-10A) was 109%. The normalised response (MDA-MB-468 [3]) was 100%, the normalised response (BT-474 [4]) was 101% and the normalised response (MDA-MB-231 [5]) was 101%. The normalised response (HCC1599 [6]) was 108%, the normalised response (CAL-120 [7]) was 97.4% and the normalised response (CAL-85-1 [8]) was 103%. It also gave a normalised response (SK-BR-3 [9]) of 113%, a normalised response (HCC1143 [10]) of 108% and a normalised response (CAL-148 [11]) of 101%. The normalised response (Hs578T [12]) was 111%, the normalised response (MDA-MB-453 [13]) was 117% and the normalised response (HDQ-P1 [14]) was 98.9%. For the same compound, the normalised response (HCC1937 [15]) was 91.8%, the normalised response (MDA-MB-436 [16]) was 93.8% and the normalised response (CAL-51 [17]) was 122%. The normalised response (MFM-223 [18]) was 106%, the normalised viability (BT-549 [19]) was 112% and the normalised viability (DU-4475 [20]) was 85.1%. For the same compound, the normalised viability (MDA-MB-468 [21]) was 95.9%, the normalised viability (BT-474 [22]) was 76.6% and the normalised viability (MDA-MB-231 [23]) was 104%. The normalised viability (HCC1599 [24]) was 87%, the normalised viability (CAL-120 [25]) was 87.2% and the normalised viability (CAL-85-1 [26]) was 83.7%. For the same compound, the normalised viability (SK-BR-3 [27]) was 92%, the normalised viability (HCC1143 [28]) was 94.9% and the normalised viability (CAL-148 [29]) was 102%. The normalised viability (Hs578T [30]) was 109%, the normalised viability (MDA-MB-453 [31]) was 96.1% and the normalised viability (HDQ-P1 [32]) was 111%. The normalised viability (HCC1937 [33]) was 105%, the normalised viability (MDA-MB-436 [34]) was 108% and the normalised viability (CAL-51 [35]) was 90.9%. It also gave a normalised viability (MFM-223 [36]) of 96.7%.
